Laboratory results taken from patent US10203322B2, “Method for identifying subjects with increased risk of ST-segment elevation myocardial infarction (STEMI) and identifying subjects likely to respond to particular treatments” (Vanderbilt University, priority 2017, dated 2019).

How the values were obtained:
[1] = system: platelets (platelet-rich plasma); assay: Platelet phenotyping: platelet aggregation in platelet-rich plasma by light transmission aggregometry, U46,619 with or without PGE2; format: cell-based, human; conditions: PGE2 100 nmol/L preincubated with PRP, sub-maximal U46,619, aggregation recorded 6 min, n=86 (FIG. 1)
Description: Measurements of platelet aggregation in PRP were made using light transmission aggregometry using a Chrono-Log lumi-aggregometer (Model 460VS). The aggregometer was calibrated for each sample to read 0-10% light transmission for PRP and 90-100% light transmission for PPP. Aliquots of PRP were placed in siliconized glass cuvettes containing Teflon-coated stir bars and incubated for 2 minutes at 37° C. PRP was preincubated with or without 100 nM PGE2 for 10-20 s before adding U46,619 at various concentrations. Samples were stirred at 800 rpm throughout a 6 minute aggregation run. Experiments were completed within 2 hours of phlebotomy. Percentage aggregation was recorded with Aggrolink software (Chrono-Log) and exported to GraphPad Prism for analysis. For each subject, multiple doses of U46,619 agonist were used to construct a dose response curve according to methods described previously; each U46,619 dose was tested with and without PGE2.
In order to describe the phenotypic observation in a quantitative rather than just qualitative format a continuous variable was constructed as follows: for each dose of U46,619, the aggregation value obtained at the end of the 6 min run in the presence of PGE2 was subtracted from the value obtained without PGE2. The largest difference was reported as the maximum PGE2 effect (maximum difference). […]

[2] = system: platelets from an individual with the low threshold phenotype; conditions: platelets of low threshold (potentiating) phenotype treated with the EP3 antagonist; ref [6], FIG. 2; cited from earlier work

CCCCC[C@H](O)/C=C/[C@H]1[C@H](O)CC(=O)[C@@H]1C/C=C\CCCC(=O)O [PGE2, Prostaglandin E2]
individuals in whom PGE2 decreases the threshold of platelet activation by the thromboxane agonist U46,619 (inhibitory phenotype) [1]: 56 % of individuals | individuals in whom PGE2 increases the threshold of platelet activation by the thromboxane agonist U46,619 (potentiating phenotype) [1]: 44 % of individuals

Cc1cn(Cc2ccc(Cl)cc2Cl)c2c(/C=C/C(=O)NS(=O)(=O)c3cc(Cl)c(Cl)s3)cc(F)cc12 [DG-041]
shift of PGE2 response phenotype [2]: the phenotype shifts to high threshold
